Results reported in US11787769B2 (priority 2019, dated 2023).
Where two headings read alike, the source gives them in different places.

Key:
Test in all cases: microbe, parasite or virus in culture
[1] = system: influenza A virus (HA of H5N1, Goose/Qinghai/59/05); assay type: cell-based; conditions: for inhibition at 12.5 µM: H5N1, A549, 12.5 μM, read-out: H5N1 pseudotype assay % inhibition at 12.5 μM
[2] = system: PR8-PB2-Gluc, influenza A/Puerto Rico/8/1934 (PR8) H1N1 virus; assay type: cell-based; conditions: read-out: EC50 (nM), antiviral activity in the infectious IAV
PR8-NS1-Gluc virus = assay type: cell-based, influenza A PR8
[3] = Influenza A virus, H5N1, A549, read-out: H5N1 pseudotype assay EC50 (μM)
[4] = read-out: H5N1 pseudotype assay EC50
[5] = Influenza A virus, PR8, MDCK, 48 h

| SMILES | inhibition at 12.5 µM ([1]; Influenza A virus) | EC50 ([2]; Influenza A virus, MDCK) | other results |
| --- | --- | --- | --- |
| CC(C)N1CCC(NC(=O)c2c(Cl)cccc2Cl)CC1 [Compound 1, 2,6-Dichloro-N-(1-isopropylpiperidin-4-yl)benzamide] | 90% | 272 ± 37 nM | EC50 [1, 3]: 3.04 ± 1.13 µM |
| CC(C)N1CCC(NC(=O)c2c(Cl)cccc2C(F)(F)F)CC1 [Compound 2, 2-Chloro-N-(1-isopropylpiperidin-4-yl)-6-(trifluoromethyl)benzamide] | 85% | 587 ± 140 nM | EC50 [1, 3]: 5.62 ± 2.16 µM |
| CC(C)N1CCC(NC(=O)c2ccccc2C(F)(F)F)CC1 [Compound 3, N-(1-Isopropylpiperidin-4-yl)-2-(trifluoromethyl)benzamide] | 31% | – | – |
| CC(C)N1CCC(NC(=O)c2ccc([N+](=O)[O-])cc2Cl)CC1 [Compound 4, 2-Chloro-N-(1-isopropylpiperidin-4-yl)-4-nitrobenzamide] | 97% | 211 ± 43 nM | EC50 [1, 3]: 0.72 ± 0.09 µM |
| CC(C)N1CCC(NC(=O)c2ccc(C(F)(F)F)cc2Cl)CC1 [Compound 5, 2-Chloro-N-(1-isopropylpiperidin-4-yl)-4-(trifluoromethyl)benzamide] | 99% | 380 ± 182 nM | EC50 [1, 3]: 0.36 ± 0.05 µM |
| CC(C)N1CCC(NC(=O)c2ncc(Cl)cc2Cl)CC1 [Compound 6, 3,5-Dichloro-N-(1-isopropylpiperidin-4-yl)picolinamide] | 39% | – | – |
| CC(C)N1CCC(NC(=O)c2ncc(C(F)(F)F)cc2Cl)CC1 [Compound 7, 3-Chloro-N-(1-isopropylpiperidin-4-yl)-5-(trifluoromethyl)picolinamide] | 76% | – | – |
| CC(C)N1CCC(NC(=O)c2ncccc2Cl)CC1 [Compound 8, 3-Chloro-N-(1-isopropylpiperidin-4-yl)picolinamide] | 40% | – | – |
| CC(C)N1CCC(N(C)C(=O)c2c(Cl)cccc2Cl)CC1 [Compound 9, 2,6-Dichloro-N-(1-isopropylpiperidin-4-yl)-N-methylbenzamide] | 91% | 724 ± 36 nM | EC50 [1, 3]: 4.45 µM |
| CC(C)N1CCC(N(Cc2ccccc2)C(=O)c2c(Cl)cccc2Cl)CC1 [Compound 10, N-Benzyl-2,6-dichloro-N-(1-isopropylpiperidin-4-yl)benzamide] | 67% | – | H5N1 pseudotype assay % inhibition at 12.5 μM ([1]; 12.5 μM): 64% |
| O=C(NC1CCN(C2CC2)CC1)c1c(Cl)cccc1Cl [Compound 11, 2,6-Dichloro-N-(1-cyclopropylpiperidin-4-yl)benzamide] | 33% | – | – |
| O=C(NC1CCN(C2CCC2)CC1)c1c(Cl)cccc1Cl [Compound 12, 2,6-Dichloro-N-(1-cyclobutylpiperidin-4-yl)benzamide] | 76% | – | – |
| CC(C)(C)N1CCC(NC(=O)c2c(Cl)cccc2Cl)CC1 [Compound 13, N-(1-(tert-Butyl)piperidin-4-yl)-2,6-dichlorobenzamide] | 99% | 113 ± 18 nM | EC50 [1, 3]: 0.51 ± 0.04 µM |
| CC(C)CN1CCC(NC(=O)c2c(Cl)cccc2Cl)CC1 [Compound 14, 2,6-Dichloro-N-(1-isobutylpiperidin-4-yl)benzamide] | 89% | 852 ± 79 nM | EC50 [1, 3]: 2.15 ± 0.64 µM |
| O=C(NC1CCN(C2COC2)CC1)c1c(Cl)cccc1Cl [Compound 15, 2,6-Dichloro-N-(1-(oxetan-3-yl)piperidin-4-yl)benzamide] | 7% | – | – |
| CC(C)CN1CCC(NC(=O)c2ccc(C(F)(F)F)cc2Cl)CC1 [Compound 17, 2-Chloro-N-(1-isobutylpiperidin-4-yl)-4-(trifluoromethyl)benzamide] | 73% | – | – |
| O=C(NC1CCN(C2CCCCC2)CC1)c1ccc(C(F)(F)F)cc1Cl [Compound 18, 2-Chloro-N-(1-cyclohexylpiperidin-4-yl)-4-(trifluoromethyl)benzamide] | 98% | 505 ± 174 nM | EC50 [1, 3]: 0.91 ± 0.25 µM |

| SMILES | inhibition at 12.5 µM ([1]; Influenza A virus) | EC50 ([2]; Influenza A virus, MDCK) | other results |
| --- | --- | --- | --- |
| CC(C)N1CCC(NS(=O)(=O)c2ccc(Cl)cc2Cl)CC1 [Compound 19, 2,4-Dichloro-N-(1-isopropylpiperidin-4-yl)benzenesulfonamide] | 1% | – | – |
| CC(C)N1CCCC(NC(=O)c2c(Cl)cccc2Cl)C1 (centres unmarked) [Compound 20, 2,6-Dichloro-N-(1-isopropylpiperidin-3-yl)benzamide] | 14% | – | – |
| CC(C)N1CCC(CNC(=O)c2c(Cl)cccc2Cl)CC1 [Compound 21, 2,6-Dichloro-N-((1-isopropylpiperidin-4-yl)methyl)benzamide] | 23% | – | – |
| CC(C)N1CCC(NC(=O)c2c(Cl)cccc2Cl)C1 (centres unmarked) [Compound 22, 2,6-Dichloro-N-(1-isopropylpyrrolidin-3-yl)benzamide] | 11% | – | – |
| CC(C)N1CCCC(NC(=O)c2c(Cl)cccc2Cl)CC1 (centres unmarked) [Compound 23, 2,6-Dichloro-N-(1-isopropylazepan-4-yl)benzamide] | 71% | – | – |
| CC(C)N1CC2C(C1)C2NC(=O)c1c(Cl)cccc1Cl (centres unmarked) [Compound 24, 2,6-Dichloro-N-(3-isopropyl-3-azabicyclo[3. 1.0]hexan-6-yl)benzamide] | 61% | – | – |
| CC(C)N1CCN(C(=O)c2c(Cl)cccc2Cl)CC1 [Compound 25, (2,6-Dichlorophenyl)-(4-isopropylpiperazin-l-yl)methanone] | – | – | H5N1 pseudotype assay % inhibition at 12.5 μM [1]: 4% |
| CC(C)N1CCC2(CC1)OCCN2C(=O)c1c(Cl)cccc1Cl [Compound 26, (2,6-Dichlorophenyl)-(8-isopropyl-1-oxa-4,8-diazaspiro[4.5]decan-4-yl)methanone] | 19% | – | – |
| CC(C)N1CCC(C)(NC(=O)c2c(Cl)cccc2Cl)CC1 [Compound 27, 2,6-Dichloro-N-(1-isopropyl-4-methylpiperidin-4-yl)benzamide] | 75% | – | – |
| CO[C@H]1CN(C(C)C)CC[C@H]1NC(=O)c1c(Cl)cccc1Cl [Compound 28, 2,6-Dichloro-N-((3S,4R)-1-isopropyl-3-methoxypiperidin-4-yl)benzamide] | 64% | – | – |
| CC(C)N1CC[C@H](NC(=O)c2c(Cl)cccc2Cl)[C@@H](F)C1 [Compound 29, 2,6-Dichloro-N-((3S,45)-3-fluoro-1-isopropylpiperidin-4-yl)benzamide] | – | – | H5N1 pseudotype assay % inhibition at 12.5 μM ([1]; 12.5 μM): 87%; EC50 [1, 4]: 1.81 ± 0.45 µM; EC50 [2]: 885 ± 50 nM |
| CC(C)N1CCC(NC(=O)c2c(Cl)cccc2Cl)C(F)(F)C1 (centres unmarked) [Compound 30, 2,6-Dichloro-N-(3,3-difluoro-1-isopropylpiperidin-4-yl)benzamide] | 77% | – | – |
| CC(C)N1CC[C@H](NC(=O)c2ccc(C(F)(F)F)cc2Cl)[C@@H](F)C1 [Compound 31, 2-Chloro-N-((3S,45)-3-fluoro-1-isopropylpiperidin-4-yl)-4-(trifluoromethyl)benzamide] | – | – | H5N1 pseudotype assay % inhibition at 12.5 μM ([1]; 12.5 μM): 93%; EC50 [1, 4]: 1.16 ± 0.67 µM; EC50 [2]: 324 ± 105 nM |
| CC(C)N1CC[C@H](NC(=O)c2ccc(C(F)(F)F)cc2Cl)[C@H](F)C1 [Compound 32, 2-Chloro-N-((3R,45)-3-fluoro-1-isopropylpiperidin-4-yl)-4-(trifluoromethyl)benzamide] | – | – | H5N1 pseudotype assay % inhibition at 12.5 μM ([1]; 12.5 μM): 99%; EC50 [1, 4]: 0.63 ± 0.48 µM; EC50 [2]: 263 ± 33 nM |
| CC(C)N1CC[C@@H](NC(=O)c2ccc(C(F)(F)F)cc2Cl)[C@H](F)C1 [Compound 33, 2-Chloro-N-((3R,4R)-3-fluoro-1-isopropylpiperidin-4-yl)-4-(trifluoromethyl)benzamide] | 87% | 989 ± 323 nM | EC50 [1, 3]: 2.93 ± 0.3 µM |
| CC(C)N1CC[C@@H](NC(=O)c2ccc(C(F)(F)F)cc2Cl)[C@@H](F)C1 [Compound 34, 2-Chloro-N-((3S,4R)-3-fluoro-1-isopropylpiperidin-4-yl)-4-(trifluoromethyl)benzamide] | 99% | 195 ± 49 nM | EC50 [1, 3]: 0.67 ± 0.2 µM |
| CCC(CC)O[C@@H]1C=C(C(=O)O)C[C@H](N)[C@H]1NC(C)=O [Oseltamivir carboxylate, reference compound] | – | 181 ± 69 nM | EC30 (PR8-NS1-Gluc virus): 160 nM; EC40 (PR8-NS1-Gluc virus): 229 nM; EC60 (PR8-NS1-Gluc virus): 441 nM; EC70 (PR8-NS1-Gluc virus): 629 nM; EC80 (PR8-NS1-Gluc virus): 972 nM; EC50 (PR8-NS1-Gluc virus; [5]): 318 nM; EC90 (PR8-NS1-Gluc virus; [5]): 1870 nM |
